Experimental data published in patent publication US6147097A, “Imidazole derivatives as anti-HIV agents” (Shionogi & Co., Ltd., priority 1994, dated 2000).
Converted amounts (≈) assume the structure as drawn. Where two headings read alike, the source gives them in different places.

Tests used:
[1] = tested on: HIV (HTLV-IIIB strain); experiment: microbe, parasite or virus in culture; assay type: cell-based; settings: Human immunodeficiency virus 1, IIIB, MT4, 120 h
How it was run: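 Protection from virus was read as viable-cell MTT conversion to formazan after 5 days at 37° C. The cultures contained MT-4 cells (3.5×10^4/well), compound dilutions and 60 pfu HIV per well.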

[2] = cytotoxicity in MT-4 cells (MTT, culture medium in place of HIV); assay type: cell-based; settings: human
How it was run: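 Uninfected readout: compound-treated MT-4 cultures, 3.5×10^4 cells/well, received medium in place of virus and were kept 5 days at 37° C. Viability measured by 1 h MTT reduction, solubilized formazan read at 560/690 nm relative to control wells.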

[3] = target: T1, purified recombinant HIV-1 reverse transcriptase (Human immunodeficiency virus type 1 group M subtype B, UniProt P04585); experiment: reverse transcriptase inhibition, poly(rA)/(dT) template primer, [3H]dTTP uptake; assay type: biochemical
T1 construct: purified recombinant HIV-1 reverse transcriptase; made in house; host or cells: Escherichia coli
How it was run: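 Inhibition reported as percent reduction of [3H]dTTP incorporation relative to solvent control, after 1 h at 37 °C at pH 8.3. Recombinant RT from E. coli, poly(rA) template with oligo(dT) primer, 4 μM unlabeled dTTP as substrate; product collected on DEAE filter mats.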

[4] = MT-4 cells, 60 pfu HIV per well, 37° C., 5 days, MTT, Tables 1 and 2, read-out: EC50
[5] = MT-4 cells, no virus, 37° C., 5 days, MTT, Table 3, read-out: CC50

CC(C)c1nc(CN)n(C)c1Sc1ccccc1 [Compound I-74, 2-aminomethyl-4-isopropyl-1-methyl-5-phenylthioimidazole]
EC50 [1, 4]: 0.25 µg/mL (≈ 0.956 µM) | CC50 at 120 h [2, 5]: 12.5 to 25 µg/mL (≈ 47.8 to 95.6 µM) | IC50 [3]: 21.8 µM

CCn1c(CN)nc(C(C)C)c1Sc1ccccc1 [Compound I-75, 2-aminomethyl-1-ethyl-4-isopropyl-5-phenylthio-1H-imidazole]
EC50 [1, 4]: 0.01 µg/mL (≈ 0.0363 µM) | CC50 at 120 h ([2]; mt-4 cells): 16.5 µg/mL (≈ 59.9 µM) | IC50 [3]: 0.799 µM

CC(C)c1nc(CN)n(CC(F)(F)F)c1Sc1cc(Cl)cc(Cl)c1 [Compound I-76, 2-aminomethyl-5-(3,5-dichlorophenylthio)-4-isopropyl-1-(2,2,2-trifluoroethyl)-1H-imidazole]
EC50 [1, 4]: 0.016 µg/mL (≈ 0.0402 µM) | CC50 at 120 h [2, 5]: 6.3 to 12.5 µg/mL (≈ 15.8 to 31.4 µM) | IC50 [3]: 8.79 µM

CC(C)c1nc(CN(C)C)n(C)c1Sc1cc(Cl)cc(Cl)c1 [Compound I-78, 5-(3,5-dichlorophenylthio)-2-dimethylaminomethyl-4-isopropyl-1-methyl-1H-imidazole]
EC50 [1, 4]: 1 µg/mL (≈ 2.79 µM) | CC50 at 120 h [2, 5]: 1 to 10 µg/mL (≈ 2.79 to 27.9 µM) | IC50 [3]: 129 µM

CC(C)c1nc(CNCCO)n(C)c1Sc1cc(Cl)cc(Cl)c1 [Compound I-79, 2-{[5-(3,5-dichlorophenylthio)-4-isopropyl-1-methyl-1H-imidazol-2-yl]methylamino} ethanol]
EC50 [1, 4]: 0.25 µg/mL (≈ 0.668 µM) | CC50 at 120 h [2, 5]: 1 to 10 µg/mL (≈ 2.67 to 26.7 µM) | IC50 [3]: 34.5 µM

CC(C)c1nc(CC(=O)O)n(C)c1Sc1cc(Cl)cc(Cl)c1 [Compound I-80, [5-(3,5-dichlorophenylthio)-4-isopropyl-1-nethyl-1H-imidazol-2-yl]acetic acid]
EC50 [1, 4]: 0.5 to 1 µg/mL (≈ 1.39 to 2.78 µM) | CC50 at 120 h [2, 5]: 10 to 100 µg/mL (≈ 27.8 to 278 µM) | IC50 [3]: 3.06 µM

CC(C)c1nc(CC#N)n(C)c1Sc1cc(Cl)cc(Cl)c1 [Compound I-80a, [5-(3,5-dichlorophenylthio)-4-isopropyl-1-methyl-1H-imidazol-2-yl]acetonitrile]
EC50 [1, 4]: 0.002 to 0.004 µg/mL (≈ 0.00588 to 0.0118 µM) | CC50 at 120 h [2, 5]: 100 µg/mL (≈ 294 µM) | IC50 [3]: 0.323 µM

CC(C)c1nc(CCOC(N)=O)n(C)c1Sc1cc(Cl)cc(Cl)c1 [Compound I-81, 2-(2-carbamoyloxy)ethyl-5-(3,5-dichlorophenylthio)-4-isopropyl-1-methyl-1H-imidazole]
EC50 [1]: 0.13 µg/mL (≈ 0.335 µM) | CC50 at 120 h [2, 5]: 10 to 100 µg/mL (≈ 25.8 to 258 µM) | IC50 [3]: 7.73 µM

CC(C)c1nc(CCO)n(C)c1Sc1cc(Cl)cc(Cl)c1 [Compound I-81a, 2-[5-(3,5-dichlorophenylthio)-4-isopropyl-1-methyl-1H-imidazol-2-yl]ethanol]
EC50 [1]: 0.001 µg/mL (≈ 0.0029 µM) | CC50 at 120 h [2, 5]: 12.5 µg/mL (≈ 36.2 µM) | IC50 [3]: 0.405 µM

CC(C)c1nc(CCN)n(C)c1Sc1cc(Cl)cc(Cl)c1 [Compound I-82, 2-(2-aminoethyl)-5-(3,5-dichlorophenylthio)-4-isopropyl-1-methyl-1H-imidazole]
EC50 [1, 4]: 0.25 µg/mL (≈ 0.726 µM) | CC50 at 120 h ([2]; mt-4 cells): 1.5 to 3.2 µg/mL (≈ 4.36 to 9.29 µM) | IC50 ([3]; read-out: RT IC50, pH 8.3, 37° C., 1 hour, Tables 5 and 6): 1.28 µM

CC(=N)NCc1nc(C(C)C)c(Sc2cc(Cl)cc(Cl)c2)n1C [Compound I-84]
EC50 [1, 4]: 1 µg/mL (≈ 2.69 µM) | CC50 at 120 h [2, 5]: 1 to 10 µg/mL (≈ 2.69 to 26.9 µM) | IC50 [3]: > 269 µM

CNCc1nc(C(C)C)c(Sc2cc(Cl)cc(Cl)c2)n1C [Compound I-85, 5-(3,5-dichlorophenylthio)-4-isopropyl-1-methyl-2-methylaminomethyl-1H-imidazole]
EC50 [1, 4]: 0.13 µg/mL (≈ 0.378 µM) | CC50 at 120 h [2, 5]: 1 to 10 µg/mL (≈ 2.9 to 29 µM) | IC50 [3]: 7.55 µM

CC(C)c1nc(CN=C(N)N)n(C)c1Sc1cc(Cl)cc(Cl)c1 [Compound I-86, 2-diaminomethylenemethylaminomethyl-5-(3,5-dichlorophenylthio)-4-isopropyl-1-methylimidazole]
EC50 [1, 4]: 1 µg/mL (≈ 2.69 µM) | CC50 at 120 h ([2]; mt-4 cells): 1 µg/mL (≈ 2.69 µM) | IC50 [3]: 33.6 µM

CC(C)c1nc(CNS(C)(=O)=O)n(C)c1Sc1cc(Cl)cc(Cl)c1 [Compound I-87, 5-(3,5-dichlorophenylthio)-4-isopropyl-2-methanesulfonylaminomethyl-1-methyl-1H-imidazole]
EC50 [1, 4]: 0.5 to 1 µg/mL (≈ 1.22 to 2.45 µM) | CC50 at 120 h [2, 5]: 10 to 100 µg/mL (≈ 24.5 to 245 µM) | IC50 [3]: > 245 µM

CNC(=S)NCc1nc(C(C)C)c(Sc2cc(Cl)cc(Cl)c2)n1C [Compound I-89, 5-(3,5-dichlorophenylthio)-4-isopropyl-1-methyl-2-(N-methylthiocarbamoyl)aminomethyl-1H-imidazole]
EC50 [1, 4]: 1 µg/mL (≈ 2.48 µM) | CC50 at 120 h [2, 5]: 1 to 10 µg/mL (≈ 2.48 to 24.8 µM) | IC50 [3]: > 248 µM

CC(C)c1nc(CNC(N)=O)n(C)c1Sc1cc(Cl)cc(Cl)c1 [Compound I-90, 5-(3,5-dichlorophenylthio)-4-isopropyl-1-methyl-2-ureidomethyl-1H-imidazole]
EC50 [1, 4]: 0.13 µg/mL (≈ 0.348 µM) | CC50 at 120 h [2, 5]: 10 to 100 µg/mL (≈ 26.8 to 268 µM) | IC50 [3]: 6.7 µM
